IC50 data for twelve molecules are collected here from BindingDB's records for doi:10.1021/jm301674z (Takeda Pharmaceutical, 2013).

This assay deals with Baculoviral IAP repeat-containing protein 2 (Homo sapiens) (UniProt Q13490). Kind of assay: Inhibition of human recombinant His-tagged cIAP1 protein BIR3 domain (250 to 350 amino acid residues) using biotinylated-Smac as substrate after overnight incubation by HTRF assay. In general terms: In TR-FRET formats the signal depends on donor and acceptor labels being close together.
Chain of Baculoviral IAP repeat-containing protein 2 (Homo sapiens) (Q13490 whole entry, looked up, the tested form may be a part): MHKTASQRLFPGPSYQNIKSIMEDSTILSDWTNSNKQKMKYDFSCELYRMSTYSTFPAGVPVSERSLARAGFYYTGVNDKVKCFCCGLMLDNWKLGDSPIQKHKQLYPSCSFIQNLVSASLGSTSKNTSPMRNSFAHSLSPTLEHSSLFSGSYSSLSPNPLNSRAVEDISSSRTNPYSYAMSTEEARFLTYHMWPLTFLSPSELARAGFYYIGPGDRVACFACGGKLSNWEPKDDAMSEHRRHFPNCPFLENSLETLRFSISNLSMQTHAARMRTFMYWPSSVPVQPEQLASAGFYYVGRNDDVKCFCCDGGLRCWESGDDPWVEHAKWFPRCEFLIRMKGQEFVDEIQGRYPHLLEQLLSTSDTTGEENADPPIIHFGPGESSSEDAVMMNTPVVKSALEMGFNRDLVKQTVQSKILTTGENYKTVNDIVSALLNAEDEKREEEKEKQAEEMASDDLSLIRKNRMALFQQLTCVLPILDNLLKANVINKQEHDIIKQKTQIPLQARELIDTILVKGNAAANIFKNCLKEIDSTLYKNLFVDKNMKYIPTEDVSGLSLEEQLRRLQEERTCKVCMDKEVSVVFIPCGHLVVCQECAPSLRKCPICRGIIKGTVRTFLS

Usually IC50 stands for the concentration that inhibits the measured activity by half.

Molecules are shown by their SMILES.

For `CCO[C@@H]1C[C@@H]2CN(C(=O)[C@@H](NC(=O)[C@H](C)NC)C3CCC(F)(F)CC3)[C@H](C(=O)N[C@@H]3CCOc4ccccc43)CN2C1`, the IC50 is 1.3 nM.

In the case of `CN[C@@H](C)C(=O)N[C@H](C(=O)N1C[C@H]2C[C@@H](O)CN2C[C@H]1C(=O)N[C@@H]1CCOc2ccccc21)C1CCC(F)(F)CC1`, the IC50 is 4.9 nM.

For the molecule `CN[C@@H](C)C(=O)N[C@H](C(=O)N1C[C@H]2CC(F)(F)CN2C[C@H]1C(=O)N[C@@H]1CCOc2ccccc21)C1CCC(F)(F)CC1`, the concentration for half-maximal inhibition (IC50) amounted to 1.7 nM.

For `CN[C@@H](C)C(=O)N[C@H](C(=O)N1C[C@@H]2CCCN2C[C@H]1C(=O)N[C@@H]1CCOc2ccccc21)C1CCC(F)(F)CC1`, the IC50 is 2.5 nM.

Regarding `CN[C@@H](C)C(=O)N[C@H](C(=O)N1C[C@H]2CCCN2C[C@H]1C(=O)N[C@@H]1CCOc2ccccc21)C1CCOCC1`, the IC50 worked out at 3.4 nM.

On to `CN[C@@H](C)C(=O)N[C@H](C(=O)N1C[C@H]2CCCN2C[C@H]1C(=O)N[C@@H]1CCOc2ccccc21)C1CCC(F)(F)CC1`, for which the IC50 worked out at 3.2 nM.

Regarding `CN[C@@H](C)C(=O)N[C@H](C(=O)N1C[C@H]2CCCN2C[C@H]1C(=O)N[C@@H]1CCOc2ccccc21)c1ccccc1`, the IC50 amounted to 2.6 nM.

For the molecule `CN[C@@H](C)C(=O)N[C@H](C(=O)N1C[C@H]2CCCN2C[C@H]1C(=O)N[C@@H]1CCC(=O)c2ccccc21)C1CCCCC1`, the IC50 was 7.6 nM.

For `CN[C@@H](C)C(=O)N[C@H](C(=O)N1C[C@H]2CCCN2C[C@H]1C(=O)N[C@@H]1CCC(F)(F)c2ccccc21)C1CCCCC1`, the IC50 worked out at 4 nM.

As for `CN[C@@H](C)C(=O)N[C@H](C(=O)N1C[C@H]2CCCN2C[C@H]1C(=O)N[C@H]1CCCc2ccccc21)C1CCCCC1`, the IC50 came out at 1300 nM.

As for `CN[C@@H](C)C(=O)N[C@H](C(=O)N1C[C@H]2CCCN2C[C@H]1C(=O)N[C@@H]1CCCc2ccccc21)C1CCCCC1`, the concentration for half-maximal inhibition (IC50) came out at 2.7 nM.

Take `CN[C@@H](C)C(=O)N[C@H](C(=O)N1C[C@H]2CCCN2C[C@H]1C(=O)N[C@H](C)c1ccccc1)C1CCCCC1`: the IC50 stood at 14 nM.
